Laboratory results from patent publication US20240207292A1, “BORONIC ACID COMPOUNDS, COMPOSITIONS AND METHODS” (Trustees of Tufts College, priority 2021, published 2024).
Several values for one entry are separate records, joined by “and”; a condition that tells them apart may be missing. Identical values can stand only once. Like-named read-outs stand apart in the source and are kept apart here. Square brackets hold non-standard residues; d marks the D form. Peptide text beside a SMILES is read from it. * marks the point of attachment. X3 = O=C1CN2CCN3CC(=O)O[C]4(C3)CN(CC(=O)*)CCN3CC(=O)O[C](C2)(C3)[Lu]4[O]1; X4 = O=C1CN2CCN3CC(=O)O[C]4(C3)CN(CC(=O)*)CCN3CC(=O)O[C](C2)(C3)[Ga]4[O]1; DOTAGA = O=C(O)CN1CCN(CC(=O)O)CCN(C(CCC(=O)*)C(=O)O)CCN(CC(=O)O)CC1; X5 = O=C(O)CN1CCN(CC(=O)O)CCN([C@H](CCC(=O)*)C(=O)O)CCN(CC(=O)O)CC1; DOTA = O=C(O)CN1CCN(CC(=O)O)CCN(CC(=O)*)CCN(CC(=O)O)CC1; X2 = O=C(O)CN1CCCN(CC(=O)O)CCN(CC(=O)*)CCCN(CC(=O)O)CC1; Pyrrolidine(2S-CN,4,4-F2) = N#C[C@@H]1CC(F)(F)CN1*; boroPro = OB(O)[C@@H]1CCCN1*

Legend:
Format in all cases: biochemical
[1] = biological target: recombinant human prolyl oligopeptidase (PREP) (Homo sapiens (Human), UniProt P48147); experiment: In vitro assay prolyl oligopeptidase IC50 (Example 21)
Sequence of recombinant human prolyl oligopeptidase (PREP) (P48147 whole entry): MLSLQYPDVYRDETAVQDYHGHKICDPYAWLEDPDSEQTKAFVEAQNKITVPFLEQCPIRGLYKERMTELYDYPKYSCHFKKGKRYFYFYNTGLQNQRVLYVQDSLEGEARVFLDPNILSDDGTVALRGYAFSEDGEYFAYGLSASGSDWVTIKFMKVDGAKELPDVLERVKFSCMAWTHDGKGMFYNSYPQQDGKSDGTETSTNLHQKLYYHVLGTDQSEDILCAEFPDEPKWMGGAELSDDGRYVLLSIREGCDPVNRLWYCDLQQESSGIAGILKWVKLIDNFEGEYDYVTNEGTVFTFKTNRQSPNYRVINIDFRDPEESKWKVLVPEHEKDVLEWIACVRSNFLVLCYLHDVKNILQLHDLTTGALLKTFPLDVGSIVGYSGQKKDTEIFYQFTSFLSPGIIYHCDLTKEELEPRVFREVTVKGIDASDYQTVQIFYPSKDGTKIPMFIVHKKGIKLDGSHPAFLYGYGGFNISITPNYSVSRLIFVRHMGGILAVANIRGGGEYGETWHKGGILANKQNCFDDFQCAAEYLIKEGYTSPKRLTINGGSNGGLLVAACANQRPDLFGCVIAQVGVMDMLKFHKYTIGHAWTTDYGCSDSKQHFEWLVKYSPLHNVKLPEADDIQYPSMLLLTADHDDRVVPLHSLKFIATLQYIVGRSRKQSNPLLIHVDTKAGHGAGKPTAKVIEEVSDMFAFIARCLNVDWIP
Method: (§1) The purpose of this assay is to determine the IC50 of various inhibitors against recombinant human dipeptidyl peptidase IV (DPPIV), fibroblast activation protein (FAP) or prolyl oligopeptidase (PREP).
(§2) The assays are conducted in the following steps: • 1 Dissolve the compound in DMSO to a final concentration of 100 mM. From this, prepare a 1 mM stock at pH 7.5 in 50 mM Tris, 140 mM NaCl Buffer (FAP)/pH 7.5 in 25 mM Tris, 250 mM NaCl Buffer/[…]. • 2. Serial dilute (1:10) the 1 mM compound stocks prepared previously into the appropriate assay buffer (FAP: 50 mM Tris, 140 mM NaCl, pH 7.5/PREP: 25 mM Tris, 0.25 M NaCl, pH 7.5/DPPIV: 25 mM Tris, pH 8.0) to one row of a 96-well plate. • 3. […] Dilute the enzymes into their appropriate assay buffers. The final enzyme concentrations should be 0.1, 1.2, and 0.6 nM for DPPIV, FAP and PREP respectively. Add 180 μL to each well needed in columns 2-10. Column 1(A,B,C) should be prepared with 200 μl of appropriate assay buffer as control. Column 1(D,E,F,G,H) should be prepared with 20 μl of appropriate assay buffer and 180 ul enzyme as no inhibitor control. • 5. Add 20 μL of the compound of interest from the dilution plate prepared in step 2 to columns 2-10 of the assay plate where appropriate. Each sample should be tested in triplicate. Allow this to incubate for 10 minutes at room temperature, shaking the plate for the first two minutes. • 6. Add 10 μL of 20× substrate prepared in step 3 to each well and allow this to incubate for 15 minutes at room temperature, shaking the plate for the first two minutes. • 7. Read the fluorescence at λex: 380, λem: 460. (DPcore=[dAla|dSer|Gly]-[boroPro|Pro-nitrile], XXaa=alpha-amino acid)

[2] = biological target: recombinant human dipeptidyl peptidase IV (DPPIV) (Homo sapiens (Human), UniProt P27487); experiment: In vitro assay dipeptidyl peptidase IV IC50 (Example 21)
Sequence of recombinant human dipeptidyl peptidase IV (DPPIV) (P27487 whole entry): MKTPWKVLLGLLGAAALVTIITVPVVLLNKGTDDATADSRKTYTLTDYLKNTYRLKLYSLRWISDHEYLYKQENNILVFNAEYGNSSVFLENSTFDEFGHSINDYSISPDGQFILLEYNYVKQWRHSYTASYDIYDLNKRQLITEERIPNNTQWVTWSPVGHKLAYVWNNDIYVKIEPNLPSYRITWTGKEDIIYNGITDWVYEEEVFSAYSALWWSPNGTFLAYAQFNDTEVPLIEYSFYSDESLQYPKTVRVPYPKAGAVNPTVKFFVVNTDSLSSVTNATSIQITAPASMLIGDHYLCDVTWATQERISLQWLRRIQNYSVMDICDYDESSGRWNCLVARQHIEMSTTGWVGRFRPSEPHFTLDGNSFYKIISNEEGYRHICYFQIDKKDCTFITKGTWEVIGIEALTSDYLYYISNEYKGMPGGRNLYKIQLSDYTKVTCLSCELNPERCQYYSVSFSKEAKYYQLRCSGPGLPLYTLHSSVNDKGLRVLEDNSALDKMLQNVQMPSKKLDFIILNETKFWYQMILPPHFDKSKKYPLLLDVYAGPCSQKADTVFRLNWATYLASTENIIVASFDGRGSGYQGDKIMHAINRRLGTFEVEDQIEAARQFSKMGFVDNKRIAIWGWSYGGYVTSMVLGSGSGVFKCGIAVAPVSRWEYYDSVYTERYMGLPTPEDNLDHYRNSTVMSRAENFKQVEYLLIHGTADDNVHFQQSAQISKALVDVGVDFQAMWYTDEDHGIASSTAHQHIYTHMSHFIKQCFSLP
Method: as §1, §2

[3] = biological target: recombinant human fibroblast activation protein (FAP) (Homo sapiens (Human), UniProt Q12884); experiment: In vitro assay fibroblast activation protein IC50 (Example 21)
Sequence of recombinant human fibroblast activation protein (FAP) (Q12884 whole entry): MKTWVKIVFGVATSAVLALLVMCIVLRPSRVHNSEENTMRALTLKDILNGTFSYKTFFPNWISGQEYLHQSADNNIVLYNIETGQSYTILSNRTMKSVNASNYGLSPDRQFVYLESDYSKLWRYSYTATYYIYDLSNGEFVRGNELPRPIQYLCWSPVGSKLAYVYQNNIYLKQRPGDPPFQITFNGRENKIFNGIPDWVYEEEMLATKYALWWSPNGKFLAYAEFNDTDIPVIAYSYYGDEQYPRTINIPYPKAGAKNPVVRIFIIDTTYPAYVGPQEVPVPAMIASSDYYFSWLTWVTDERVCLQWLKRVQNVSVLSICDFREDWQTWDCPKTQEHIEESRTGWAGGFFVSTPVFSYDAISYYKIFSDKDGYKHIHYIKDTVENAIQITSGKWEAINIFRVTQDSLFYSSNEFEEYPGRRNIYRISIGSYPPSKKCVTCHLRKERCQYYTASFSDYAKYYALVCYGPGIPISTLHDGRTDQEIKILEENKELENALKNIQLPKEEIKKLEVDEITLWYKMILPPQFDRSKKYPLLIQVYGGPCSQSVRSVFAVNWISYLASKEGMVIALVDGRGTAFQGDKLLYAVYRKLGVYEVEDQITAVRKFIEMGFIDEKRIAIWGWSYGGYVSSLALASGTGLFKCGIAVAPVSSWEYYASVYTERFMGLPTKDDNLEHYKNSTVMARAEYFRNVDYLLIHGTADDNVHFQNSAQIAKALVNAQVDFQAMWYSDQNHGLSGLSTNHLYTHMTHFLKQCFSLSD
Method: as §1, §2

Structure (SMILES)	IC50 [1] [nM]	IC50 [2] [nM]	IC50 [3]	IC50 ([1]; Z-Gly-Pro-AMC, 0.6 nM enzyme) [nM]	IC50 ([2]; Gly-Pro-AMC, 0.1 nM enzyme) [nM]	IC50 ([3]; Z-Gly-Pro-AMC, 1.2 nM enzyme) [nM]
C[C@@H](NC(=O)c1ccc(NNC(=O)CN2CCN3CCN4CCN(CC2)CC(=O)[O][Gd]([O]C(=O)C3)[O]C(=O)C4)nc1)C(=O)N1CCC[C@H]1B(O)O [4536GD]	> 100000	> 100000	450 nM	–	–	–
C[C@@H](NC(=O)c1ccc(NNC(=O)CCCCC[N+]2=C(/C=C/C3=C(Oc4ccc(S(=O)(=O)O)cc4)C(=C/C=C4/N(CCCCS(=O)(=O)O)c5ccc(S(=O)(=O)O)cc5C4(C)C)/CCC3)C(C)(C)c3cc(S(=O)(=O)O)ccc32)nc1)C(=O)N1CCC[C@H]1B(O)O [4613 B]	390	> 100000	8.8 nM and 10 nM	–	–	–
C[C@@H](NC(=O)c1ccc(NNC(=O)CCCCCNC(=O)CN2CCN3CCN4CCN(CC2)CC(=O)[O][Ga]([O]OC(=O)C3)[O]C(=O)C4)cc1)C(=O)N1CCC[C@H]1B(O)O [6486 GA]	4700	> 100000	81 nM	–	–	–
C[C@@H](NC(=O)c1ccc(NNC(=O)CNC(=O)CN2CCN3CCN4CCN(CC2)CC(=O)[O][Lu]([O]C(=O)C3)[O]C(=O)C4)cc1)C(=O)N1CCC[C@H]1B(O)O [6487LU]	34	–	8.8 nM	–	–	–
C[C@@H](NC(=O)c1ccc(NNC(=O)CCCNC(=O)CN2CCN3CCN4CCN(CC2)CC(=O)[O][Ga]([O]C(=O)C3)[O]C(=O)C4)nc1)C(=O)N1CCC[C@H]1B(O)O [6489 GA]	3400	> 100000	39 nM	–	–	–
CC(C)[C@H](NC(=O)CNC(=O)CNC(=O)CN1CCN2CC(=O)O[C]3(CN4CCN5CC(=O)O[C](C1)(C5)[Ga]3[O]C(=O)C4)C2)C(=O)N[C@H](C)C(=O)N1CCC[C@H]1B(O)O (stereo partly shown) [6522GA-02] (X4-GGV[dA]-boroPro)	–	–	–	19000	> 100000	575
CC(C)[C@H](NC(=O)CNC(=O)CNC(=O)CN1CCN2CC(=O)O[C]3(CN4CCN5CC(=O)O[C](C1)(C5)[Lu]3[O]C(=O)C4)C2)C(=O)N[C@H](C)C(=O)N1CCC[C@H]1B(O)O (stereo partly shown) [6522LU] (X3-GGV[dA]-boroPro)	–	–	–	19000	> 100000	26
CC(C)[C@H](NC(=O)CNC(=O)CNC(=O)CN1CCCN(CC(=O)O)CCN(CC(=O)O)CCCN(CC(=O)O)CC1)C(=O)N[C@@H](C)C(=O)N1CCC[C@H]1B(O)O [6522L] (X2-GGVA-boroPro)	–	–	–	7.6	3400	> 100000
C[C@@H](NC(=O)c1ccc(CNC(=O)CN2CCN3CCN4CCN(CC2)CC(=O)[O][Ga]([O]C(=O)C3)[O]C(=O)C4)nc1)C(=O)N1CCC[C@H]1B(O)O [6556GA]	248	–	32 nM	–	–	–
C[C@@H](NC(=O)c1ccc(CNC(=O)CN2CCN3CCN4CCN(CC2)CC(=O)[O][Lu]([O]C(=O)C3)[O]C(=O)C4)nc1)C(=O)N1CCC[C@H]1B(O)O [6556LU]	895	–	2.9 nM	–	–	–
C[C@@H](NC(=O)c1ccc(NC(=O)CN2CCN3CCN4CCN(CC2)CC(=O)[O][Ga]([O]C(=O)C3)[O]C(=O)C4)cc1)C(=O)N1CCC[C@H]1B(O)O [6572GA]	234	–	25 nM	–	–	–
C[C@@H](NC(=O)c1ccc(NC(=O)CN2CCN3CCN4CCN(CC2)CC(=O)[O][Lu]([O]C(=O)C3)[O]C(=O)C4)cc1)C(=O)N1CCC[C@H]1B(O)O [6572LU]	891	–	9.5 nM	–	–	–
C[C@@H](NC(=O)c1ccc(NNC(=O)CCCCCNC(=O)CN2CCN3CCN4CCN(CC2)CC(=O)[O][Lu]([O]C(=O)C3)[O]C(=O)C4)nc1)C(=O)N1CCC[C@H]1B(O)O [6609LU]	60	–	1 nM	–	–	–
CC(C)[C@H](NC(=O)CNC(=O)CC[C@@H]1C(=O)[O][Lu]23[O]C(=O)CN4CCN(CCN1CCN(CC4)CC(=O)[O]2)CC(=O)[O]3)C(=O)N[C@H](C)C(=O)N1CCC[C@H]1B(O)O [6795DLU]	–	–	–	10000	> 100000	60
CC(C)[C@H](NC(=O)CNC(=O)CC[C@H](C(=O)O)N1CCN(CC(=O)O)CCN(CC(=O)O)CCN(CC(=O)O)CC1)C(=O)N[C@H](C)C(=O)N1CCC[C@H]1B(O)O [6795D]	–	–	–	7450	> 100000	17
CC(C)[C@H](NC(=O)CNC(=O)CNC(=O)CNC(=O)CC[C@H](C(=O)O)N1CCN(CC(=O)O)CCN(CC(=O)O)CCN(CC(=O)O)CC1)C(=O)N[C@H](C)C(=O)N1CCC[C@H]1B(O)O [6808D] (X5-GGGV[dA]-boroPro)	–	–	–	11000	–	11.5
C[C@@H](NC(=O)[C@H]1CC[C@H](CNC(=O)CN2CCN3CCN4CCN(CC2)CC(=O)[O][Ga]([O]C(=O)C3)[O]C(=O)C4)CC1)C(=O)N1CCC[C@H]1B(O)O [6952 GA]	–	–	–	50000	80000	87
C[C@@H](NC(=O)[C@H]1CC[C@H](CNC(=O)CN2CCN3CCN4CCN(CC2)CC(=O)[O][Lu]([O]C(=O)C3)[O]C(=O)C4)CC1)C(=O)N1CCC[C@H]1B(O)O [6952 LU]	–	–	–	21000	> 100000	14
C[C@@H](NC(=O)c1ccc(NNC(=O)CCCCCNC(=O)CN2CCN3CCN4CCN(CC2)CC(=O)[O][Lu]([CH2]C(=O)C3)[O]C(=O)C4)nc1)C(=O)N1CCC[C@H]1B(O)O [6958LU]	155	–	1.1 nM	–	–	–
C[C@@H](NC(=O)c1ccc(NN)nc1)C(=O)N1CCC[C@H]1B(O)O [compound 3860]	9800	> 100000	170 nM	–	–	–
C[C@@H](NC(=O)CN1CCN(CC(=O)O)CCN(CC(=O)O)CCN(CC(=O)O)CC1)C(=O)N1CCC[C@H]1B(O)O [compound 4535]	–	–	–	> 10000	–	290
C[C@@H](NC(=O)c1ccc(NNC(=O)CN2CCN(CC(=O)O)CCN(CC(=O)O)CCN(CC(=O)O)CC2)nc1)C(=O)N1CCC[C@H]1B(O)O [compound 4536]	50	84000	9 nM	–	–	–
C[C@@H](NC(=O)c1ccc(NC(=O)CCCCNC(=O)CN2CCN(CC(=O)O)CCN(CC(=O)O)CCN(CC(=O)O)CC2)cc1)C(=O)N1CCC[C@H]1B(O)O [compound 6590]	129	–	1.6 nM	–	–	–
C[C@@H](NC(=O)c1ccc(CNC(=O)CCCNC(=O)CN2CCN(CC(=O)O)CCN(CC(=O)O)CCN(CC(=O)O)CC2)cc1)C(=O)N1CCC[C@H]1B(O)O [compound 6591]	103	–	0.36 nM	–	–	–
CC(C)[C@H](NC(=O)CNC(=O)CNC(=O)CN1CCN(CC(=O)O)CCN(CC(=O)O)CCN(CC(=O)O)CC1)C(=O)N[C@H](C)C(=O)N1CC(F)(F)C[C@H]1C#N [compound 6790] ({DOTA}-GGV[dA]-{Pyrrolidine(2S-CN,4,4-F2)})	–	–	–	157000	–	107
CC(C)[C@H](NC(=O)CNC(=O)CNC(=O)CCC(C(=O)O)N1CCN(CC(=O)O)CCN(CC(=O)O)CCN(CC(=O)O)CC1)C(=O)N[C@H](C)C(=O)N1CCC[C@H]1B(O)O (stereo partly shown) [compound 6794] ({DOTAGA}-GGV[dA]-boroPro)	–	–	–	17400	–	33
CC(C)[C@H](NC(=O)CNC(=O)CCC(C(=O)O)N1CCN(CC(=O)O)CCN(CC(=O)O)CCN(CC(=O)O)CC1)C(=O)N[C@H](C)C(=O)N1CCC[C@H]1B(O)O (stereo partly shown) [compound 6795]	–	–	–	5520	–	8.9
